Experimental data as given in patent US20250281479A1, “TREATMENT OF CAVERNOUS ANGIOMAS WITH A 4-SUBSTITUTED PIPERIDINE DERIVATIVE” (Neurelis, Inc., priority 2024, published 2025).

Biological target: MATE2-K (Homo sapiens, UniProt Q86VL8)
Type: in vitro ADME
Protocol: Exposure to NRL-2017 was similar or greater (up to 5-fold) than that to NRL-1049 in rats when dosed once a day (QD). In monkeys, exposure to NRL-2017 was also greater (up to 33-fold) than that to NRL-1049. When rats were dosed twice a day (BID) for 14 days, there was a decrease in formation of NRL-2017 with exposure to NRL-2017 lower than that of NRL-1049 (ratio as low as 0.06). […] NRL-1049 bound to human serum albumin and human alpha1-acid glycoprotein. […] There was also inhibition of P-glycoprotein (P-gp) (only CACO-2 cells), organic anion transporting polypeptides (OATP) OATP1B1, OATP1B3 and OAT3 (IC50, >100 μM), but no effect on P-gp (MDCK2 cells), breast cancer resistance protein (BCRP), bile salt export pump (BSEP), or MATE2-K. NRL-1049 is a substrate for P-gp, not BCRP. […] This conclusion will be revisited when human pharmacokinetic (PK) data becomes available.

Chain of MATE2-K (Q86VL8 1-566 isoform Q86VL8-3): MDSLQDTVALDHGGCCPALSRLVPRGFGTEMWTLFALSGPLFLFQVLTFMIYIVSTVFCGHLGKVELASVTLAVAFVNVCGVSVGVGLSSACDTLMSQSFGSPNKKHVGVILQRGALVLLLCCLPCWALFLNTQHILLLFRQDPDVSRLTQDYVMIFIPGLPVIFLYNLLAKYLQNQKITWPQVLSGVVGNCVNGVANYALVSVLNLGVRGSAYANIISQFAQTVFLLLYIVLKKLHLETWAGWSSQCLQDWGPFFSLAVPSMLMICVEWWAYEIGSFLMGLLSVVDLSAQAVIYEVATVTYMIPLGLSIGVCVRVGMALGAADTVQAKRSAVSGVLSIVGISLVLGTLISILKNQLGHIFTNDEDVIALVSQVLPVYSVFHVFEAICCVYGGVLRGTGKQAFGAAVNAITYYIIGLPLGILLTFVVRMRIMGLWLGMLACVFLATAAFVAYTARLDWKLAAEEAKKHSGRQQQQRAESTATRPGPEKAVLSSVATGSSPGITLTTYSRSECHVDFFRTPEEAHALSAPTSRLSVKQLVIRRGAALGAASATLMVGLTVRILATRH

`C[C@@H](N)C1CCN(S(=O)(=O)c2cccc3cnccc23)CC1` [NRL-1049] was tested, and the effect on transporter was “no effect”.
